According to ChEMBL document CHEMBL1126133, “2-Nitroimidazole dual-function bioreductive drugs: studies on the effects of regioisomerism and side-chain structural modifications on differential cytotoxicity and radiosensitization by aziridinyl and oxiranyl derivatives” (1992):

Legend:
[1] = Concentration required to kill 50% of V79-379A cells under N2 (in vitro); assay type: functional, Cricetulus griseus
[2] = Ratio of concentration required to kill 50% aerobic V79-379A cells C50(air) to that of concentration required to kill 50% of cells under N2 C50(N2) was determined; assay type: functional
[3] = Concentration required to kill 50% of aerobic V79-379A cells (in vitro); assay type: functional, Cricetulus griseus
[4] = Radiosensitization of hypoxic V79-379A cells was determined in vitro; expressed as concentration required to give enhancement ratio of 1.6

| SMILES | C50 [1] | Ratio [2] | C50 [3] | C1.6 [4] |
| --- | --- | --- | --- | --- |
| O=[N+]([O-])c1nccn1CCC1CO1 (stereo not given) | 0.25 mM | 2 | 0.5 mM |  |
| CC(C)(C(O)Cn1ccnc1[N+](=O)[O-])N1CC1 (stereo not given) | 0.008 mM | 12.5 | 0.1 mM | 0.07 mM |
| O=[N+]([O-])c1nccn1[C@H]1CCC[C@@H](N2CC2)[C@@H]1O | 0.35 mM | 1 | 0.35 mM | 0.45 mM |
| CC(O)(CN1CC1)Cn1ccnc1[N+](=O)[O-] (stereo not given) | 0.02 mM | 27.5 | 0.55 mM |  |
| C[C@@H]([C@H](O)Cn1ccnc1[N+](=O)[O-])N1CC1 | 0.01 mM | 20 | 0.2 mM | 0.12 mM |
| CC1CN1CC(O)Cn1ccnc1[N+](=O)[O-] (stereo not given) | 0.065 mM | 12.2 | 0.79 mM | 0.08 mM |
| O=[N+]([O-])c1nccn1[C@@H]1CCC[C@@H]2O[C@@H]21 | 0.18 mM | 1.5 | 0.28 mM |  |
| CC1(Cn2ccnc2[N+](=O)[O-])CO1 (stereo not given) | 0.2 mM | 1 | 0.2 mM |  |
| O=[N+]([O-])c1nccn1CCCCC1CO1 (stereo not given) | 0.7 mM | 1.7 | 1.2 mM |  |
| O=[N+]([O-])c1nccn1CC(O)CCC1CO1 (stereo not given) | 0.4 mM | 1.5 | 0.6 mM | 0.4 mM |
| CC1OC1Cn1ccnc1[N+](=O)[O-] (stereo not given) | 3.3 mM | 3 | 10 mM |  |
| O=[N+]([O-])c1nccn1CC(O)C1CO1 (stereo not given) | 0.36 mM | 3.3 | 1.2 mM | 0.2 mM |
| O=[N+]([O-])c1nccn1CC(O)CN1CC1 (stereo not given) | 0.015 mM | 20 | 0.3 mM | 0.1 mM |
| O=[N+]([O-])c1ncc[nH]1 [AZOMYCIN] | 0.27 mM | 2 | 0.55 mM | 0.25 mM |
